pEC50: −log10 of the molar value.
Target: T1, recombinant human ALX receptor (Homo sapiens, UniProt P25090)
T1 construct: expressed in transfected cells; host or cells: HEK293 (HEK293-hALXR-Gα16)
T1 sequence (P25090 1-351): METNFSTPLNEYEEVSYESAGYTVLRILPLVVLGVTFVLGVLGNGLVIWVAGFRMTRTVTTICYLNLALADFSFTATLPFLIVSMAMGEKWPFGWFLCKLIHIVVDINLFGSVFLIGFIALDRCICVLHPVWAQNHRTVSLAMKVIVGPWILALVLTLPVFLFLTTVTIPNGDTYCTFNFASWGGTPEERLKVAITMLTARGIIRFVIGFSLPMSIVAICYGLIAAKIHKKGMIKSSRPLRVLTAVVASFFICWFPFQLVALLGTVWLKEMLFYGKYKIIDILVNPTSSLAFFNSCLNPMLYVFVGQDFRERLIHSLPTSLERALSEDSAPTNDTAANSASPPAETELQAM
Experiment: Intracellular calcium measurements (FLIPR), ALX receptor agonistic activity
Assay type: cell-based
Settings: HEK293-hALXR-Gα16 cells, Fluo-4 calcium fluorescence, normalized to 10 nM WKYMVm
Procedure: The ALX receptor agonistic activity of the compounds of formula (I) is determined in accordance with the following experimental method.
Intracellular Calcium Measurements:
Cells expressing recombinant human ALX receptor and the G-protein Gα16 (HEK293-hALXR-Gα16) were grown to 80% confluency in Growing Medium (GM). […] Stock solutions of test compounds were made up at a concentration of 10 mM in DMSO, and serially diluted in AB to concentrations required for activation dose response curves. WKYMVm (Phoenix Peptides) was used as a reference agonist. A FLIPR384 instrument (Molecular Devices) was operated according to the manufacturer's standard instructions, adding 4 μl of test compound dissolved at 10 mM in DMSO and diluted prior to the experiment in assay buffer to obtain the desired final concentration. Changes in fluorescence were monitored before and after the addition of test compounds at lex=488 nm and lem=540 nm. Emission peak values above base level after compounds addition were exported after base line subtraction. Values were normalized to high-level control (WKYMVm compound, 10 nM final concentration) after subtraction of the base line value (AB addition). The program XLlfit 3.0 (IDBS) was used to fit the data to a single site dose response curve of the equation (A+((B−A)/(1+((C/x)^D)))) and to calculate the EC50 values.

pEC50 | SMILES
7.16 | CC(=O)CCCCn1cc(NC(=O)OC(C)c2ccccc2)cn1 (racemic) [Example 125, [1-(5-Oxo-hexyl)-1H-pyrazol-4-yl]-carbamic acid (RS)-1-phenyl-ethyl ester]
6.69 | O=C(Nc1cnn(Cc2ccc(C(=O)C3CC3)o2)c1)OCc1ccccc1Cl [Example 3, [1-(5-Cyclopropanecarbonyl-furan-2-ylmethyl)-1H-pyrazol-4-yl]-carbamic acid 2-chloro-benzyl ester]
7.48 | CC(=O)c1ccc(Cn2ccc(NC(=O)OCc3cc(F)c(F)cc3F)n2)o1 [Example 24, [1-(5-Acetyl-furan-2-ylmethyl)-1H-pyrazol-3-yl]-carbamic acid 2,4,5-trifluoro-benzyl ester]
7.02 | CC(=O)c1ccc(Cn2ccc(NC(=O)/C=C/c3cccc(C(F)(F)F)c3F)n2)o1 [Example 45, (E)-N-[1-(5-Acetyl-furan-2-ylmethyl)-1H-pyrazol-3-yl]-3-(2-fluoro-3-trifluoromethyl-phenyl)-acrylamide]
6.70 | COc1ccc(-c2ocnc2C(=O)Nc2ccn(Cc3ccc(C(C)=O)o3)n2)cc1 [Example 48, 5-(4-Methoxy-phenyl)-oxazole-4-carboxylic acid [1-(5-acetyl-furan-2-ylmethyl)-1H-pyrazol-3-yl]-amide]
7.28 | CC(=O)c1ccc(Cn2cc(NC(=O)OCc3ccc(C(F)(F)F)cc3)cn2)o1 [Example 63, [1-(5-Acetyl-furan-2-ylmethyl)-1H-pyrazol-4-yl]-carbamic acid 4-trifluoromethyl-benzyl ester]
6.68 | COc1cccc(/C=C/C(=O)Nc2cnn(Cc3ccc(C(C)=O)o3)c2)c1OC [Example 93, (E)-N-[1-(5-Acetyl-furan-2-ylmethyl)-1H-pyrazol-4-yl]-3-(2,3-dimethoxy-phenyl)-acrylamide]
6.69 | CC(=O)c1ccc(Cn2cc(NC(=O)c3ncsc3-c3cccc(Cl)c3)cn2)o1 [Example 120, 5-(3-Chloro-phenyl)-thiazole-4-carboxylic acid [1-(5-acetyl-furan-2-ylmethyl)-1H-pyrazol-4-yl]-amide]
6.72 | CC(=O)CCCCn1cc(NC(=O)c2ncoc2-c2ccccc2)cn1 [Example 152, 5-Phenyl-oxazole-4-carboxylic acid [1-(5-oxo-hexyl)-1H-pyrazol-4-yl]-amide]
6.48 | CC(=O)CCCCn1cc(NC(=O)/C=C/c2ccccc2Cl)cn1 [Example 157, (E)-3-(2-Chloro-phenyl)-N-[1-(5-oxo-hexyl)-1H-pyrazol-4-yl]-acrylamide]
6.44 | CC(=O)CCCCn1ccc(NC(=O)OCc2ccc(F)c(F)c2)n1 [Example 169, [1-(5-Oxo-hexyl)-1H-pyrazol-3-yl]-carbamic acid 3,4-difluoro-benzyl ester]
6.02 | CC(=O)CCCCn1ccc(NC(=O)c2ncoc2-c2ccccc2)n1 [Example 179, 5-Phenyl-oxazole-4-carboxylic acid [1-(5-oxo-hexyl)-1H-pyrazol-3-yl]-amide]
7.17 | CC(=O)CCCCn1ccc(NC(=O)/C=C/c2ccccc2C(F)(F)F)n1 [Example 181, (E)-N-[1-(5-Oxo-hexyl)-1H-pyrazol-3-yl]-3-(2-trifluoromethyl-phenyl)-acrylamide]
7.54 | CC(F)(F)c1ccc(Cn2ccc(NC(=O)OCc3ccccc3Cl)n2)o1 [Example 197, {1-[5-(1,1-Difluoro-ethyl)-furan-2-ylmethyl]-1H-pyrazol-3-yl}-carbamic acid 2-chloro-benzyl ester]
6.51 | CC(F)(F)c1ccc(Cn2ccc(NC(=O)c3ncoc3-c3ccccc3)n2)o1 [Example 198, 5-Phenyl-oxazole-4-carboxylic acid {1-[5-(1,1-difluoro-ethyl)-furan-2-ylmethyl]-1H-pyrazol-3-yl}-amide]
7.48 | CC(F)(F)c1ccc(Cn2cc(NC(=O)OCc3ccccc3Cl)cn2)o1 [Example 199, {1-[5-(1,1-Difluoro-ethyl)-furan-2-ylmethyl]-1H-pyrazol-4-yl}-carbamic acid 2-chloro-benzyl ester]
7.34 | CC(F)(F)c1ccc(Cn2cc(NC(=O)c3ncoc3-c3ccccc3)cn2)o1 [Example 200, 5-Phenyl-oxazole-4-carboxylic acid {1-[5-(1,1-difluoro-ethyl)-furan-2-ylmethyl]-1H-pyrazol-4-yl}-amide]

pEC50 | SMILES
6.81 | CC(F)(F)CCCCn1ccc(NC(=O)OCc2ccccc2Cl)n1 [Example 201, [1-(5,5-Difluoro-hexyl)-1H-pyrazol-3-yl]-carbamic acid 2-chloro-benzyl ester]
6.05 | CC(F)(F)CCCCn1ccc(NC(=O)c2ncoc2-c2ccccc2)n1 [Example 202, 5-Phenyl-oxazole-4-carboxylic acid [1-(5,5-difluoro-hexyl)-1H-pyrazol-3-yl]-amide]
7.55 | CC(F)(F)CCCCn1cc(NC(=O)OCc2ccccc2Cl)cn1 [Example 203, [1-(5,5-Difluoro-hexyl)-1H-pyrazol-4-yl]-carbamic acid 2-chloro-benzyl ester]
6.71 | CC(F)(F)CCCCn1cc(NC(=O)c2ncoc2-c2ccccc2)cn1 [Example 204, 5-Phenyl-oxazole-4-carboxylic acid [1-(5,5-difluoro-hexyl)-1H-pyrazol-4-yl]-amide]
6.93 | CC(F)CCCCn1cc(NC(=O)OCc2ccccc2Cl)cn1 (stereo not shown) [Example 236, [1-(5-Fluoro-hexyl)-1H-pyrazol-4-yl]-carbamic acid 2-chloro-benzyl ester]
7.57 | CC(F)(F)c1ccc(Cn2ccc(NC(=O)OCc3cccc(C(F)(F)F)c3)n2)o1 [Example 280, {1-[5-(1,1-Difluoro-ethyl)-furan-2-ylmethyl]-1H-pyrazol-3-yl}-carbamic acid 3-trifluoromethyl-benzyl ester]
7.60 | Cc1ccc(F)c(COC(=O)Nc2ccn(CCCCC(C)(F)F)n2)c1F [Example 282, [1-(5,5-Difluoro-hexyl)-1H-pyrazol-3-yl]-carbamic acid 2,6-difluoro-3-methyl-benzyl ester]
7.57 | CCc1ccccc1COC(=O)Nc1cnn(Cc2ccc(C(C)(F)F)o2)c1 [Example 314, {1-[5-(1,1-Difluoro-ethyl)-furan-2-ylmethyl]-1H-pyrazol-4-yl}-carbamic acid 2-ethyl-benzyl ester]
7.07 | CC(=O)c1ccc(Cn2cc(NC(=O)c3ncoc3-c3ccc(C)cc3)cn2)o1 [Example 331, 5-p-Tolyl-oxazole-4-carboxylic acid [1-(5-acetyl-furan-2-ylmethyl)-1H-pyrazol-4-yl]-amide]
7.22 | CC(=O)c1ccc(Cn2ccc(NC(=O)c3nc(C)oc3-c3cccc(-c4ccccc4)c3)n2)o1 [Example 354, 5-Biphenyl-3-yl-2-methyl-oxazole-4-carboxylic acid [1-(5-acetyl-furan-2-ylmethyl)-1H-pyrazol-3-yl]-amide]
7.54 | CC(=O)c1ccc(Cn2ccc(NC(=O)c3ncoc3-c3cccc(-c4ccccc4)c3)n2)o1 [Example 356, 5-Biphenyl-3-yl-oxazole-4-carboxylic acid [1-(5-acetyl-furan-2-ylmethyl)-1H-pyrazol-3-yl]-amide]
5.83 | CC(=O)c1cc(Cn2cc(NC(=O)c3ncoc3-c3ccccc3)cn2)on1 [Example 362, 5-Phenyl-oxazole-4-carboxylic acid [1-(3-acetyl-isoxazol-5-ylmethyl)-1H-pyrazol-4-yl]-amide]
6.09 | CC(=O)c1cccc(Cn2cc(NC(=O)c3ncoc3-c3ccccc3)cn2)n1 [Example 364, 5-Phenyl-oxazole-4-carboxylic acid [1-(6-acetyl-pyridin-2-ylmethyl)-1H-pyrazol-4-yl]-amide]
7.25 | CC(=O)c1cccc(Cn2cc(NC(=O)OCc3ccccc3Cl)cn2)c1 [Example 366, [1-(3-Acetyl-benzyl)-1H-pyrazol-4-yl]-carbamic acid 2-chloro-benzyl ester]
7.13 | CC(=O)c1ccc(Cn2ccc(NC(=O)c3ncoc3-c3ccccc3)n2)s1 [Example 376, 5-Phenyl-oxazole-4-carboxylic acid [1-(5-acetyl-thiophen-2-ylmethyl)-1H-pyrazol-3-yl]-amide]
7.74 | COCCc1cccc(-c2ocnc2C(=O)Nc2ccn(Cc3ccc(C(C)=O)o3)n2)c1 [Example 379, 5-[3-(2-Methoxy-ethyl)-phenyl]-oxazole-4-carboxylic acid [1-(5-acetyl-furan-2-ylmethyl)-1H-pyrazol-3-yl]-amide]
7.46 | CC(=O)c1ccc(Cn2ccc(NC(=O)c3ncoc3-c3cccc(C(=O)OC(C)(C)C)c3)n2)o1 [Example 381, 3-{4-[1-(5-Acetyl-furan-2-ylmethyl)-1H-pyrazol-3-ylcarbamoyl]-oxazol-5-yl}-benzoic acid tert-butyl ester]

Reference: US8288419B2, “Aminopyrazole derivatives” (Actelion Pharmaceuticals, Ltd, priority 2007, dated 2012)
